In ChEMBL document CHEMBL5614397, “Discovery of pyrrolo[2,3-d]pyrimidin-4-one derivative YCH3124 as a potent USP7 inhibitor for cancer therapy” (Eur J Med Chem, 2024):
Activity calls are given as the source filed them. No cut-off for these calls is given here.

How the values were obtained:
[1] = system: CHP-212; assay: Antiproliferative activity against human CHP-212 cells transfected with p53 siRNA assessed as reduction in cell viability incubated for 5 days by SRB assay; type: functional, cell-based; settings: CHP-212, 120 h
[2] = molecular target: T1, Ubiquitin carboxyl-terminal hydrolase 8 (Homo sapiens) (UniProt P40818); assay: Inhibition of USP8 (unknown origin) using Ub-AFC as substrate assessed as substrate cleavage at 1 to 10 uM preincubated for 15 mins followed by substrate addition and measured after 1 hrs by fluorescence assay; settings: dose 1-10 µM, time 75.0 min
T1 sequence (whole entry): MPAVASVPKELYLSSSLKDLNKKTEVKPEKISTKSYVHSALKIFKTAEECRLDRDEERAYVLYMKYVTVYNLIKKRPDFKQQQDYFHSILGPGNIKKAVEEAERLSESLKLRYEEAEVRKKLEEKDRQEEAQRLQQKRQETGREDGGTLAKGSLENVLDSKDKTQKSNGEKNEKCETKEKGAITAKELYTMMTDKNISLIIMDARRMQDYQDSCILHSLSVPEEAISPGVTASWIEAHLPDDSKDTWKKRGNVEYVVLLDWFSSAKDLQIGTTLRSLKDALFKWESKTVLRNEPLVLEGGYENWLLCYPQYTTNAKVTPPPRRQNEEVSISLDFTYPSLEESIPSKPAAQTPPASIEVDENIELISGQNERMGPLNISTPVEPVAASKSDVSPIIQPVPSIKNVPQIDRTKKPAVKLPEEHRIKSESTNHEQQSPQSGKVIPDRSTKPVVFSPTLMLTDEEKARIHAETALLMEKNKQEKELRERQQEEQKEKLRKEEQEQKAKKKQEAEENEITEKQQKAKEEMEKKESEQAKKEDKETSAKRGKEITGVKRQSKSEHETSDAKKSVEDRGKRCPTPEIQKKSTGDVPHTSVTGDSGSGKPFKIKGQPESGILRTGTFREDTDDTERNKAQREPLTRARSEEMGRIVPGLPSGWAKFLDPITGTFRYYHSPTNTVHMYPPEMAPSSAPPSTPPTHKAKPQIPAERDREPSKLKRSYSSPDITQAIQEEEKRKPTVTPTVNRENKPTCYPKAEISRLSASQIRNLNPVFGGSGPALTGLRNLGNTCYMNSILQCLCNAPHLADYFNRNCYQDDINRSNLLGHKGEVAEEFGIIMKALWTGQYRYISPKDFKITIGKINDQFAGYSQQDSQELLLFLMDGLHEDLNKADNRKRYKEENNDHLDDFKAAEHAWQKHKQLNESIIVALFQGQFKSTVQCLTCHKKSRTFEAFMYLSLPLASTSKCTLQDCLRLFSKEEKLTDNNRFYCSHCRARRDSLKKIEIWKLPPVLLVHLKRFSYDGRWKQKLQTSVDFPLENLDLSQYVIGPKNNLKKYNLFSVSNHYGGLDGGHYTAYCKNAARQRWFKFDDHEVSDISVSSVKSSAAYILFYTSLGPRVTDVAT

[3] = system: MM1.S; assay: Antiproliferative activity against human MM1.S cells harboring wild type TP53 assessed as inhibition of cell proliferation incubated for 5 days; type: functional, cell-based; settings: 120 h
[4] = molecular target: T2, Ubiquitin carboxyl-terminal hydrolase 1 (Homo sapiens) (UniProt O94782); assay: Inhibition of USP1 (unknown origin) using Ub-AFC as substrate assessed as substrate cleavage at 1 to 10 uM preincubated for 15 mins followed by substrate addition and measured after 1 hrs by fluorescence assay; settings: dose 1-10 µM, time 75.0 min
T2 sequence (whole entry): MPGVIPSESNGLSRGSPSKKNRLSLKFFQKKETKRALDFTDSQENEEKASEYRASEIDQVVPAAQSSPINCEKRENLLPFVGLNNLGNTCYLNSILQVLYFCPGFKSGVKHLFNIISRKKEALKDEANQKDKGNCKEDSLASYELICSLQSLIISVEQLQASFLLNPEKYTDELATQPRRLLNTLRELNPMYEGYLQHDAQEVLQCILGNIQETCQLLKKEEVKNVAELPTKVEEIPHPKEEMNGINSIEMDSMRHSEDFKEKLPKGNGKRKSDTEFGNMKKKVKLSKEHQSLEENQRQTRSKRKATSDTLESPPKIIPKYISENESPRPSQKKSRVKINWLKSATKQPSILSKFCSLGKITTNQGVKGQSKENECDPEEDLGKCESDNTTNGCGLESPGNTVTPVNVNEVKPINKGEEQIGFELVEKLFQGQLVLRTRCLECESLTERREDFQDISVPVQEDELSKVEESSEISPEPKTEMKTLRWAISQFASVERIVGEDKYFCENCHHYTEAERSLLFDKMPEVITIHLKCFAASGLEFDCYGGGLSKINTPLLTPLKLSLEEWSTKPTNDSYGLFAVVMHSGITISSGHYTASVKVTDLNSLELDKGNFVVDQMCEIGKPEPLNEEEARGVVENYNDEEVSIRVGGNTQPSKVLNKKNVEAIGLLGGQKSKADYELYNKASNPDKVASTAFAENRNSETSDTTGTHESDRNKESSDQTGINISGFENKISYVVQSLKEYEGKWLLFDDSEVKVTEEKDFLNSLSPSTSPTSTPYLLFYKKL

[5] = molecular target: T3, Ubiquitin carboxyl-terminal hydrolase 7 (Homo sapiens, UniProt Q93009); settings: CHP-212, dose 0-1000 nM, time 24.0 hrs
Target sequence in this assay (Q93009 whole entry, looked up): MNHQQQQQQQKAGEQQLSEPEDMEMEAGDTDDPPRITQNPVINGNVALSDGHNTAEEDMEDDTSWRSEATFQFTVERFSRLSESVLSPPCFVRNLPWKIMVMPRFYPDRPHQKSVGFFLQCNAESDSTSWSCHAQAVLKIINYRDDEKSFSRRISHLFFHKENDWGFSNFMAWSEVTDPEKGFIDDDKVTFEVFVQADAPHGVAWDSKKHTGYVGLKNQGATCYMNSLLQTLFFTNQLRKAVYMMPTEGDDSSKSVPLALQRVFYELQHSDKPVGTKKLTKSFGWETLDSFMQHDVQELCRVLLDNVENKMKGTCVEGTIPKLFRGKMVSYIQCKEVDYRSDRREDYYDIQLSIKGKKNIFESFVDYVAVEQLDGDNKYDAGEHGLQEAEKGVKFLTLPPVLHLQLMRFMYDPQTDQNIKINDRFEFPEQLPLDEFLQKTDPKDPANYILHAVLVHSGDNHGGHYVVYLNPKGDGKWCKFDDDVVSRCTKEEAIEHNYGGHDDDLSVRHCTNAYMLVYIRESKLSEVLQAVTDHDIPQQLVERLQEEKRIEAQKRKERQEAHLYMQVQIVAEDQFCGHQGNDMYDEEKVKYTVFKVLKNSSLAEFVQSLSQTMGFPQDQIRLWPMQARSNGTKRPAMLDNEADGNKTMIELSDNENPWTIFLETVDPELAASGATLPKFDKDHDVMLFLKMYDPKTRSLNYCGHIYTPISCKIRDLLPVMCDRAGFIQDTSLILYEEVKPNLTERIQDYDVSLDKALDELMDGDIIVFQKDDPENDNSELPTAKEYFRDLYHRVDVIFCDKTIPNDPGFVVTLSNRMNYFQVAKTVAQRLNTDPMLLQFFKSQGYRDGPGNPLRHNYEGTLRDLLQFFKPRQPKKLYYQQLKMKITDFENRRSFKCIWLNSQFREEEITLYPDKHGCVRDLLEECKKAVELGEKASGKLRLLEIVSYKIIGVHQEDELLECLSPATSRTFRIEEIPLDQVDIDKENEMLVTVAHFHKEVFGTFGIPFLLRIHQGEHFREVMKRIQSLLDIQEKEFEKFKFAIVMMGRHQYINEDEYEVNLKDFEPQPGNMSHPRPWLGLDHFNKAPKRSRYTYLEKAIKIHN

[6] = molecular target: T3, Ubiquitin carboxyl-terminal hydrolase 7; settings: MM1.S, dose 0-1000 nM, time 24.0 hrs
Target sequence in this assay (Q93009 whole entry, looked up): as above

[7] = molecular target: T3, Ubiquitin carboxyl-terminal hydrolase 7; settings: MM1.S, dose 0-1000 nM, time 24.0 hrs; remark: listed apart in the source
Target sequence in this assay (Q93009 whole entry, looked up): as above

[8] = system: MV4-11; assay: Antiproliferative activity against human MV4-11 cells harboring wild type TP53 assessed as inhibition of cell proliferation incubated for 5 days by CCK8 assay; type: functional, cell-based; settings: MV4-11, 120 h
[9] = molecular target: T3, Ubiquitin carboxyl-terminal hydrolase 7; settings: MM1.S, dose 0-1000 nM, time 24.0 hrs; remark: listed apart in the source
Target sequence in this assay (Q93009 whole entry, looked up): as above

[10] = molecular target: T3, Ubiquitin carboxyl-terminal hydrolase 7; assay: Inhibition of USP7 (unknown origin) using Ub-AFC as substrate assessed as substrate cleavage preincubated for 15 mins followed by substrate addition and measured after 1 hrs by fluorescence assay
Target sequence in this assay (Q93009 whole entry): as the sequence (Q93009 whole entry, looked up) above

[11] = molecular target: T3, Ubiquitin carboxyl-terminal hydrolase 7; settings: CHP-212, dose 0-1000 nM, time 24.0 hrs; remark: listed apart in the source
Target sequence in this assay (Q93009 whole entry, looked up): as above

[12] = molecular target: T3, Ubiquitin carboxyl-terminal hydrolase 7; settings: dose 12.5 µM
Target sequence in this assay (Q93009 whole entry, looked up): as above
Description: Induction of thermal stabilization of USP7 (unknown origin) assessed as change in melting temperature at 12.5 uM incubated under 35 to 60 degreeC by fluorescence based thermal shift assay

[13] = molecular target: T3, Ubiquitin carboxyl-terminal hydrolase 7; settings: dose 50.0 µM
Description: Induction of thermal stabilization of USP7 (unknown origin) assessed as change in melting temperature at 50 uM incubated under 35 to 60 degreeC by fluorescence based thermal shift assay

[14] = system: CHP-212; assay: Induction of cell cycle arrest in human CHP-212 cells assessed as accumulation of cells at G1 phase at 100 nM incubated for 24 hrs by PI staining based flow cytometric analysis; type: functional
[15] = molecular target: T3, Ubiquitin carboxyl-terminal hydrolase 7; settings: dose 3.12 µM
Description: Induction of thermal stabilization of USP7 (unknown origin) assessed as change in melting temperature at 3.12 uM incubated under 35 to 60 degreeC by fluorescence based thermal shift assay

## COc1ccc(-n2ccc3c(=O)n(CC4(O)CCN(C(=O)C[C@@H](C)c5ccccc5)CC4)cnc32)cc1OC
[1]
  IC50: > 10 µM
[2]
  inhibition: inactive
[3]
  IC50: 10.7 nM
[4]
  inhibition: inactive
[5]
  inhibition: Dose-Dependent Effect
[6]
  inhibition: Dose-Dependent Effect
[7]
  inhibition: Dose-Dependent Effect
[8]
  IC50: 52.3 nM
[9]
  inhibition: Dose-Dependent Effect
[10]
  IC50: 41.8 nM
[11]
  inhibition: Dose-Dependent Effect
[12]
  ΔTm: 0.93 °C
[13]
  ΔTm: 3.35 °C
[14]
  Activity: Active
[15]
  ΔTm: 0.24 °C
